Assays:
[1] = test system: B16F10-Cas9 cells pulsed with SIINFEKL peptide, co-cultured with OT-I T cells; experiment: Genome-scale CRISPR-Cas9 screen, selection with OT-I T cells; assay type: cell-based, mouse; settings: Table 3; B16F10-Cas9 cells pulsed with SIINFEKL, co-cultured with OT-I T cells 1:1 for one day; negative = depleted, positive = enriched
[2] = test system: B16F10-Cas9 cells co-cultured with Pmel-1 T cells; experiment: Genome-scale CRISPR-Cas9 screen, selection with Pmel-1 T cells; assay type: cell-based, mouse; settings: Table 3; B16F10-Cas9 cells pre-treated with IFNγ, co-cultured with Pmel-1 T cells 1:1 for three days; negative = depleted, positive = enriched

| Sequence | OT1 (sgRNA Log(2) fold change, OT-I selection versus control T cells) [1] | Pmel+ (sgRNA Log(2) fold change, Pmel-1 selection versus control T cells) [2] |
| --- | --- | --- |
| GCAAATGTAGAAATGTCGTG (chemistry not fully specified) | -2.34 | -0.65 |
| GCAAGAGGTTATCAAACACG (chemistry not fully specified) | -2.17 | -0.79 |
| GCACTGCTCTCATAACCCAT (chemistry not fully specified) | -0.77 | 3.01 |
| GCAGGGGTCTCCTTATGTCG (chemistry not fully specified) | -2.67 | -1.13 |
| GCCAACATCTGCTTACTCGC (chemistry not fully specified) | -2.55 | -1.97 |
| GCCAGCTTTCTCGCACGTGG (chemistry not fully specified) | -0.61 | -2.01 |
| GCCCTTTACTTTCAGTACGG (chemistry not fully specified) | -2.52 | -0.93 |
| GCCTGTACCACGCAGCCAAG (chemistry not fully specified) | -2.37 | 0.00 |
| GCGTCGTCGACTTATGACTT (chemistry not fully specified) | -3.36 | -0.05 |
| GCTCAAGTACTCGCCCGACC (chemistry not fully specified) | -2.85 | -0.69 |
| GCTCACCACGGGCTGCAACG (chemistry not fully specified) | 0.43 | 2.34 |
| GCTCGATGGATAGCATTCAC (chemistry not fully specified) | -3.98 | 0.17 |
| GCTGCAGAGGCAGTTTGATG (chemistry not fully specified) | -3.06 | -0.70 |
| GCTGCCCCGCAGGATCATCA (chemistry not fully specified) | -2.94 | -2.00 |
| GCTGGGGAACTCAATTATAG (chemistry not fully specified) | -0.78 | 2.03 |
| GCTGTGGGGACTGCTAAAAG (chemistry not fully specified) | -1.12 | 2.22 |
| GCTGTTACTCCAGAGACACA (chemistry not fully specified) | -0.23 | -2.27 |
| GGAAACGTGGCATGTCTCGG (chemistry not fully specified) | 1.93 | 2.66 |
| GGAATCCCTGTGCTGATCGT (chemistry not fully specified) | -2.76 | -0.49 |
| GGACAAGACATGGAGACAGA (chemistry not fully specified) | -2.11 | 0.83 |
| GGACACCAAGTTATTCCGTG (chemistry not fully specified) | -3.20 | -2.89 |
| GGACGAGAGCAACATAAACA (chemistry not fully specified) | -0.03 | 2.15 |
| GGATAGACGCCCAGCCACTG (chemistry not fully specified) | 3.32 | 9.31 |
| GGATCCTGGCGATTCAACAT (chemistry not fully specified) | -3.11 | 0.74 |
| GGCCCCGACTCAGACCCGCG (chemistry not fully specified) | 5.15 | 3.60 |
| GGTATTCCCAGCATACGACA (chemistry not fully specified) | 3.32 | 5.25 |

| Sequence | OT1 (sgRNA Log(2) fold change, OT-I selection versus control T cells) [1] | Pmel+ (sgRNA Log(2) fold change, Pmel-1 selection versus control T cells) [2] |
| --- | --- | --- |
| GGTCATACTTAAAAGCACAA (chemistry not fully specified) | -2.07 | -0.81 |
| GGTTCCTTGCGGGACTCCGT (chemistry not fully specified) | -3.31 | -2.53 |
| GGTTCGCTTCTTCCAAACCA (chemistry not fully specified) | -2.41 | -2.08 |
| GTAGACAACAACATTCGCAG (chemistry not fully specified) | 0.33 | 2.97 |
| GTATAAGCCATTACGACGCA (chemistry not fully specified) | -2.81 | -1.52 |
| GTCTCTAGCAAAGTCCACGC (chemistry not fully specified) | -0.40 | 3.25 |
| GTCTTGTGCAAAAAGCCCGA (chemistry not fully specified) | -2.54 | -0.15 |
| GTGAGCCTGAGGAACCTGCT (chemistry not fully specified) | 1.01 | 3.08 |
| GTTTCTGGCATCCAAAGTAG (chemistry not fully specified) | -2.50 | 0.80 |
| TAAAAGTCCCTCCCTCAAAG (chemistry not fully specified) | -2.56 | 0.00 |
| TAAGCGTTGTTGACTACATG (chemistry not fully specified) | -3.02 | 0.00 |
| TAATTGCTGAGAATGTACTC (chemistry not fully specified) | -2.54 | 0.00 |
| TACTGATCATAAACGAACCA (chemistry not fully specified) | -3.34 | 0.25 |
| TAGCCGACAGAGATGTACCG (chemistry not fully specified) | 0.05 | 3.52 |
| TATACCAATACGCAAATACC (chemistry not fully specified) | 4.07 | 4.34 |
| TATGGAGCGGTGTATGCCCG (chemistry not fully specified) | -3.33 | 1.27 |
| TATGTGGAGCATAACCGGAG (chemistry not fully specified) | 2.95 | 3.80 |
| TCACTGCGTACGCGTCACTG (chemistry not fully specified) | -3.44 | 0.81 |
| TCAGCAACTGAGAACTCACT (chemistry not fully specified) | -1.37 | -2.37 |
| TCAGGATGCTGTGATAAGCG (chemistry not fully specified) | -0.67 | 2.98 |
| TCATAGCCAGAGCATACTCT (chemistry not fully specified) | -3.24 | -1.33 |
| TCATCTTCGGAGGGCTCAAG (chemistry not fully specified) | 0.18 | 2.75 |
| TCCCTTTGATGTGTTCCACG (chemistry not fully specified) | 3.40 | 4.23 |
| TCCGAACCGAATCATCACTG (chemistry not fully specified) | 3.59 | 10.23 |
| TCGGCTTCCCATTCTCCGGT (chemistry not fully specified) | 5.48 | 4.33 |
| TCTGTTGAAAGAGCGCCAAA (chemistry not fully specified) | -0.71 | -3.36 |

Source: US11820822B2, “Methods for sensitizing cancer cells to T cell-mediated killing by modulating molecular pathways” (DANA-FARBER CANCER INSTITUTE, INC., priority 2017, dated 2023)
